PubChem BioAssay AID623871 (Sanford-Burnham Center for Chemical Genomics, 2012)
Calls of active or inactive are those of the source.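 How the source made its calls: active means IC50 at or below 10 µM; inactive means the rest.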

Test system: H9c2 cardiomyoblasts, 2-deoxyglucose injury, ATP luminescence, 2 h
Test: protection of H9c2 cells from ATP loss, SAR follow-up, 2-deoxyglucose, ATP luminescence (AID 623871)

Structure (SMILES) | IC50
COc1ccc2c(=O)c(C(=O)N3CCN(S(=O)(=O)c4c(C)cc(C)cc4C)CC3)c[nH]c2c1 | > 79 µM (inactive)
COc1ccc(-n2cc(-c3ccccc3)c3c(N4CCCC4)ncnc32)cc1 | > 79 µM (inactive)
COc1ccc(-c2cc(C(=O)NCc3ccccc3)c3ccccc3n2)cc1OC | > 79 µM (inactive)
COc1ccc2c(c1OC)C(=O)N1c3ccccc3C(=O)N(c3ccc(F)cc3)C21 (centres undefined) | 39.4 µM (inactive)
Cc1ccc2cc(CN(C)S(=O)(=O)c3ccc(F)cc3)c(=O)[nH]c2c1 | > 79 µM (inactive)
COc1ccc(S(=O)(=O)N(Cc2cccnc2)Cc2cc3ccccc3[nH]c2=O)cc1 | 53.9 µM (inactive)
COc1ccc(-n2cc(-c3ccccc3)c3c(NCc4ccccc4)ncnc32)cc1 | 13.6 µM (inactive)
CCN(CC)C(=O)C(=O)c1c(-c2ccccc2)[nH]c2ccccc12 | > 79 µM (inactive)
O=C1c2ccccc2N2C(=O)c3ccccc3[C@H]2N1c1ccccc1 | 34.3 µM (inactive)
CCCn1c(SC(C(=O)Nc2cccc(OC)c2)c2ccccc2)nc2ccccc2c1=O (centres undefined) | > 79 µM (inactive)
COc1ccc2cc(C(=O)N3CCN(S(=O)(=O)c4ccc(C)cc4C)CC3)c(C)nc2c1 | > 79 µM (inactive)
O=C(C(=O)N1CCCC1)c1c(-c2ccccc2)[nH]c2ccccc12 | > 79 µM (inactive)
O=c1[nH]c2ccccc2cc1CN(Cc1ccco1)S(=O)(=O)c1ccc(F)cc1 | > 79 µM (inactive)
CCN(CC)S(=O)(=O)c1cc(C(=O)N2CCN(Cc3cccc4cccnc34)CC2)ccc1C | > 79 µM (inactive)
CCCN(CC(=O)Nc1ccccc1OC)C(=O)c1cc(-c2cccs2)nn1-c1ccccc1 | > 79 µM (inactive)
COc1ccc2c(c1OC)C(=O)N1c3ccccc3C(=O)N(c3ccccc3C)C21 (centres undefined) | 36.1 µM (inactive)
COc1ccccc1N1C(=O)c2ccccc2N2C(=O)c3c(ccc(OC)c3OC)C12 (centres undefined) | 42.5 µM (inactive)
COc1ccc(-c2cc(C(=O)N(C)C)c3ccccc3n2)cc1OC | > 79 µM (inactive)
COc1ccc2cc(C(=O)N3CCN(S(=O)(=O)c4cc(C)ccc4C)CC3)c(C)nc2c1 | > 79 µM (inactive)
Cc1ccc(-c2[nH]c3ccccc3c2C(=O)C(=O)N(C)C)cc1 | > 79 µM (inactive)
COc1ccc2c(c1OC)C(=O)N1c3ccccc3C(=O)N(c3cccc(Br)c3)C21 (centres undefined) | 10.6 µM (inactive)
COCCNC(=O)C(c1ccc(O)cc1)N(C(=O)c1snc(C(N)=O)c1N)c1ccccc1F (centres undefined) | > 79 µM (inactive)

Structure (SMILES) | IC50
COc1cccc(CN(C)C(=O)c2cc(-c3ccc(OC)c(OC)c3)nc3ccccc23)c1 | 15.1 µM (inactive)
NC(=O)c1nsc(C(=O)N(Cc2ccccc2)C(C(=O)NCc2ccc(F)cc2)c2ccc(O)cc2)c1N (centres undefined) | > 79 µM (inactive)
O=C(C(=O)N1CCCCC1)c1c(-c2ccccc2)[nH]c2ccccc12 | > 79 µM (inactive)
COc1cc(-c2cc(C(=O)Nc3cccc(C(C)=O)c3)c3ccccc3n2)cc(OC)c1OC | 10.7 µM (inactive)
COc1ccc(-c2cc(C(=O)NCc3ccco3)c3ccccc3n2)cc1OC | 39.2 µM (inactive)
COCCn1c(SC(C(=O)Nc2cc(C)ccc2C)c2ccccc2)nc2ccccc2c1=O (centres undefined) | 4.01 µM (inactive)
COc1cccc(NC(=O)C(Sc2nc3ccccc3c(=O)n2CC(C)C)c2ccccc2)c1 (centres undefined) | 19.5 µM (inactive)
COc1ccc(N2C(=O)c3ccccc3N3C(=O)c4c(ccc(OC)c4OC)C23)cc1 (centres undefined) | 29.3 µM (inactive)
COc1cccc(NC(=O)CN(C)C(=O)c2cc(-c3cccs3)nn2-c2ccccc2)c1 | > 79 µM (inactive)
COc1cccc(CN(C)C(=O)c2cc(-c3ccccc3)nc3ccc(C)cc23)c1OC | > 79 µM (inactive)
Cc1ccc2cc(CN(Cc3cccnc3)S(=O)(=O)c3ccc(F)cc3)c(=O)[nH]c2c1 | > 79 µM (inactive)
Cc1ccccc1N(C(=O)c1snc(C(N)=O)c1N)C(C(=O)NCc1ccc(F)cc1)c1ccc(O)cc1 (centres undefined) | > 79 µM (inactive)
CC(C)CCNC(=O)C(c1ccc(O)cc1)N(C(=O)c1snc(C(N)=O)c1N)c1ccccc1F (centres undefined) | > 79 µM (inactive)
Cc1ccc(S(=O)(=O)N2CCN(C(=O)c3cc(=O)[nH]c4ccccc34)CC2)cc1C | 33.4 µM (inactive)
COc1ccc(NC(=O)CN(C)C(=O)c2cc(-c3cccs3)nn2-c2ccccc2)cc1 | 38.6 µM (inactive)
COc1ccc(-n2cc(-c3ccccc3)c3c(N4CCCCC4)ncnc32)cc1 | 10.6 µM (inactive)
Cc1ccc(C)c(S(=O)(=O)N2CCN(C(=O)c3cc4cc(C)ccc4nc3C)CC2)c1 | 46.2 µM (inactive)
Cc1ccc(NC(=O)CN(C)C(=O)c2cc(-c3cccs3)nn2-c2ccccc2)cc1 | 27.2 µM (inactive)
CCN(CC(=O)Nc1ccc(OC)cc1)C(=O)c1cc(-c2cccs2)nn1-c1ccccc1 | 6.24 µM
NC(=O)c1nsc(C(=O)N(c2cccc(F)c2)C(C(=O)NC2CCCC2)c2ccc(O)cc2)c1N (centres undefined) | > 79 µM (inactive)
Cc1ccc(S(=O)(=O)N(Cc2cccnc2)Cc2cc3ccccc3[nH]c2=O)cc1 | > 79 µM (inactive)
COc1ccc(-c2cc(C(=O)N(C)Cc3ccc(OC)c(OC)c3OC)c3ccccc3n2)cc1OC | 7.31 µM
